Laboratory results published in patent US9340590B2 (priority 2011, dated 2016).
Where two headings read alike, the source gives them in different places. Positions of bridges follow the written chain, without caps; N, C: chain ends. Non-standard residues stand in square brackets, D forms with d. Residues, ends and D or L forms follow the SMILES beside them. Trp(1-Me) = Cn1cc(C[C@H](N)C(=O)O)c2ccccc21; Phe(4-I) = N[C@@H](Cc1ccc(I)cc1)C(=O)O

How the values were obtained:
Assay in all cases: cell-based
hNav1.3 = hNav1.3 (Homo sapiens, UniProt Q9NY46); settings: IonWorks Quattro, read-out: IWQ Use Nav1.3
hNav1.7 = hNav1.7 (Homo sapiens, UniProt Q15858); type: cell-based; settings: IonWorks Quattro, read-out: IWQ Use Nav1.7
hNav1.5 = hNav1.5 (Homo sapiens, UniProt Q14524); settings: IonWorks Quattro, read-out: IWQ Use Nav1.5
hNav1.5, sequence (Q14524 whole entry, looked up): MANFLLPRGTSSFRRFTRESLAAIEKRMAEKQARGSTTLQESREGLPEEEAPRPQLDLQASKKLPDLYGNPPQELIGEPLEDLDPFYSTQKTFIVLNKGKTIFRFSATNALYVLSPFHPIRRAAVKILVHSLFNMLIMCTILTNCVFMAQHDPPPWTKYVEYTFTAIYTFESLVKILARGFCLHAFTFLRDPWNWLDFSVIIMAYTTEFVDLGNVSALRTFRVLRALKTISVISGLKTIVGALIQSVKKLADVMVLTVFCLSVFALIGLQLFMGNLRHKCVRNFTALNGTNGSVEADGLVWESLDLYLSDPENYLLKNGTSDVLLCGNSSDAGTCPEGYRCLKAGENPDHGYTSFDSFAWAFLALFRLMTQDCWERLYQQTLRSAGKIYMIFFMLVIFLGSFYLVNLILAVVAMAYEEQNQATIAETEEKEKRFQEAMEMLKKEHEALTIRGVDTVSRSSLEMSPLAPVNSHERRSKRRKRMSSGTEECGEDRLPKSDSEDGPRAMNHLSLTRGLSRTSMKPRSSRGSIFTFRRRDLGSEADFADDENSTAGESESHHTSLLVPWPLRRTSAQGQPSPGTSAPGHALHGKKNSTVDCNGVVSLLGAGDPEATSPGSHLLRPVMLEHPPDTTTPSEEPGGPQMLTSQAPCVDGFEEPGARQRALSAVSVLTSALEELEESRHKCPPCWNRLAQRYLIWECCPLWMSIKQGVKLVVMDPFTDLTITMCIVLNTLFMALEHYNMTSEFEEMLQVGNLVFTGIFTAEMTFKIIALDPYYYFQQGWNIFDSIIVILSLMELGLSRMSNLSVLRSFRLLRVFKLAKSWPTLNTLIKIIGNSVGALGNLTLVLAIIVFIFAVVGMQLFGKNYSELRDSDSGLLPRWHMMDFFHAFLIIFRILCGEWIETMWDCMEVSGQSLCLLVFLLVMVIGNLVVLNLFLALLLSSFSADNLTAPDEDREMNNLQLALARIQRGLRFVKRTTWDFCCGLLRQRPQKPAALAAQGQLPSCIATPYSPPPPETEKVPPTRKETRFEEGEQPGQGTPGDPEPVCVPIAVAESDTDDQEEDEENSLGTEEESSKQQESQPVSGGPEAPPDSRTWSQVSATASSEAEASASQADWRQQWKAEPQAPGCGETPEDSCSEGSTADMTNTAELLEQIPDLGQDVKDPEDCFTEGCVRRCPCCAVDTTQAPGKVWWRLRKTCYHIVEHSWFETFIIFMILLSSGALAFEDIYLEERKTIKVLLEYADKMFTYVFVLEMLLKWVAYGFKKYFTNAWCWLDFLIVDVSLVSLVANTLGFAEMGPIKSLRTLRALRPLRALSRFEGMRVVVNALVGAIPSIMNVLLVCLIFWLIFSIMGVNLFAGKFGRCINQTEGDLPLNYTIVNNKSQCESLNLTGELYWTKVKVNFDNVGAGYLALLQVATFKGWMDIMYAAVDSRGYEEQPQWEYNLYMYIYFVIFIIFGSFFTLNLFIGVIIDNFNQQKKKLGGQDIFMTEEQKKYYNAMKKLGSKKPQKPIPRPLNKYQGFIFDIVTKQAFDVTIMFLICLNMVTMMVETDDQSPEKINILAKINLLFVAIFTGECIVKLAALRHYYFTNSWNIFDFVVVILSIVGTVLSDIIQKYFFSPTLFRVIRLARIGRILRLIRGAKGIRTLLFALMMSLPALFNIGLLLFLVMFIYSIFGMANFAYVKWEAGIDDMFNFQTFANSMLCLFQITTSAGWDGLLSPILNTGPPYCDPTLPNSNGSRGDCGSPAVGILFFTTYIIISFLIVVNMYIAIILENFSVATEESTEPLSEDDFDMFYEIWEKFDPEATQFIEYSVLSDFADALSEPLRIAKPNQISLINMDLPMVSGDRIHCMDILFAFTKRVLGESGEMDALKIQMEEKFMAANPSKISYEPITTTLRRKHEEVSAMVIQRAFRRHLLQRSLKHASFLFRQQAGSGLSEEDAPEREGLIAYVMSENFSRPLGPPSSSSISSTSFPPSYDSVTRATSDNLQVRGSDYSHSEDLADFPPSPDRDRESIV

hNav1.3, sequence (Q9NY46 whole entry, looked up): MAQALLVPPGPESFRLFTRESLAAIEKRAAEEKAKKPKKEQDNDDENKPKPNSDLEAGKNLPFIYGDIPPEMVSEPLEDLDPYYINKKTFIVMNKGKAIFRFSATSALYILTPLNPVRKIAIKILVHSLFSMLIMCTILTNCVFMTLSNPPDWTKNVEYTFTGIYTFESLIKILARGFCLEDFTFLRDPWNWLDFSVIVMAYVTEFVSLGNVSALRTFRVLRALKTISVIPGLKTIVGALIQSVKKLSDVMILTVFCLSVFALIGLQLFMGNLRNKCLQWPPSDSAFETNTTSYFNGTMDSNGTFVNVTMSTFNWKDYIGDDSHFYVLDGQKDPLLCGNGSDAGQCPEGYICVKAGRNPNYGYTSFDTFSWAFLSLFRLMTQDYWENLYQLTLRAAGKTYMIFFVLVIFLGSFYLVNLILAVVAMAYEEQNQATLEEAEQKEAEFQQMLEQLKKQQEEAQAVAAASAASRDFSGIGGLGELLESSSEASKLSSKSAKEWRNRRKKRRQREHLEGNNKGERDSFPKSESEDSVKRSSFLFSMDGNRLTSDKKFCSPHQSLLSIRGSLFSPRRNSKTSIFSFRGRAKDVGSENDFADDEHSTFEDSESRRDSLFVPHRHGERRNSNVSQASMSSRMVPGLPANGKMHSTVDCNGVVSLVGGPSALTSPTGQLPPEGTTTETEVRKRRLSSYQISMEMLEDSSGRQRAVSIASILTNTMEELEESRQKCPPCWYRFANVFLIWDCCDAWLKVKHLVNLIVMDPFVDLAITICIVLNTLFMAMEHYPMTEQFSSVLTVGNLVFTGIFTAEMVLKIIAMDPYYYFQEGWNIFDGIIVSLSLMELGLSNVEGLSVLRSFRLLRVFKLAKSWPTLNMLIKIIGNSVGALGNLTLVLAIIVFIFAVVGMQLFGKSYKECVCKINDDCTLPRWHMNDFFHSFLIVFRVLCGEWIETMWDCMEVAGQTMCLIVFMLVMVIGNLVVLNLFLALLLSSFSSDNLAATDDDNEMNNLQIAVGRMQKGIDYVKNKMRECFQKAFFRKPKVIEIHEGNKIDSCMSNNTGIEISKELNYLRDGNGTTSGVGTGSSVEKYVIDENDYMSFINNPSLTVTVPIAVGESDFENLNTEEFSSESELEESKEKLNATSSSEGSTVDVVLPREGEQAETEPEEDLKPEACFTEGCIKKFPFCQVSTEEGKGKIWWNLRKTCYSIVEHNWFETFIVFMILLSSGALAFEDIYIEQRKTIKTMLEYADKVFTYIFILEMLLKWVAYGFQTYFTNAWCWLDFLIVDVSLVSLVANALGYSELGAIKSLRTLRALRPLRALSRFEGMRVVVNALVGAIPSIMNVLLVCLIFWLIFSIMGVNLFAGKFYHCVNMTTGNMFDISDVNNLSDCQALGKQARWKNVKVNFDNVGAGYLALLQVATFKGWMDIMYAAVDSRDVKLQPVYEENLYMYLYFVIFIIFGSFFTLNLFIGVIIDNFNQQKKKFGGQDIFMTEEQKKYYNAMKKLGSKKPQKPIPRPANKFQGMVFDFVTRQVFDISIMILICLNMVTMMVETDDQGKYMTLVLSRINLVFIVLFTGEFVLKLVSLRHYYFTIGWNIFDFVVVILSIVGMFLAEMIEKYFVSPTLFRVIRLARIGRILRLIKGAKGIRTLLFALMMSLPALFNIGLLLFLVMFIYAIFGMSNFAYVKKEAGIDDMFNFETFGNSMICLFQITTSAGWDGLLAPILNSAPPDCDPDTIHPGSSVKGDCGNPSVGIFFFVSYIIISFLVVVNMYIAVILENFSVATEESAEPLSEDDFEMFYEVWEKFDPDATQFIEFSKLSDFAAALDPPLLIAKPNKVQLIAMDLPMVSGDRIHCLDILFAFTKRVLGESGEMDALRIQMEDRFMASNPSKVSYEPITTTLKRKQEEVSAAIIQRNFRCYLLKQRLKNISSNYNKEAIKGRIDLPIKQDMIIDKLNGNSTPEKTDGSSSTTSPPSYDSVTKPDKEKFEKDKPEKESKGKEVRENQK

Row | SMILES | IC50 (hNav1.3; Use) [µM] | IC50 (hNav1.7; Use) [µM] | IC50 (hNav1.5; Use) [µM] | IC50 (hNav1.3; Table 26, use, […]) [µM] | IC50 (hNav1.7; Table 26, use, […]) [µM] | IC50 (hNav1.5; Table 26, use, […]) [µM] | also measured
1 | CC[C@H](C)[C@@H]1NC(=O)[C@@H]2CSSC[C@@H]3NC(=O)[C@H](C(C)C)NC(=O)[C@H](CC(C)C)NC(=O)[C@H](Cc4ccccc4)NC(=O)[C@@H]4CCCN4C(=O)[C@H](CCCNC(=N)N)NC(=O)[C@H](CSSC[C@H](NC(=O)[C@@H](N)CC(=O)O)C(=O)N[C@@H](CC(C)C)C(=O)NCC(=O)N[C@@H](Cc4ccccc4)C(=O)N[C@@H](CCSC)C(=O)N[C@@H](CCCNC(=N)N)C(=O)N[C@@H](CCCCN)C(=O)N2)NC(=O)[C@H](CSSC[C@@H](C(=O)N[C@@H](CCCCN)C(=O)N[C@@H](Cc2ccc(O)cc2)C(=O)N[C@H](C(=O)N[C@@H](Cc2ccccc2)C(N)=O)C(C)C)NC(=O)[C@H](Cc2c[nH]c4ccccc24)NC(=O)[C@H](CCCCN)NC(=O)[C@H](Cc2c[nH]cn2)NC(=O)[C@H]([C@@H](C)O)NC(=O)[C@H](CCCNC(=N)N)NC(=O)[C@H](CO)NC3=O)NC(=O)[C@H](CCCCN)NC(=O)[C@H](CC(=O)O)NC(=O)[C@H](CC(N)=O)NC(=O)[C@H](CC(=O)O)NC(=O)[C@@H]2CCCN2C1=O [compound 199] (H-DCLGFMRKCIPDNDKCCRPFLVCSRTHKWCKYVF-NH2; disulfide 2-17, 9-23, 16-30) | 0.067 | 0.154 | 10.8 | – | – | – | –
2 | CC[C@H](C)[C@@H]1NC(=O)[C@@H]2CSSC[C@@H]3NC(=O)[C@H](C(C)C)NC(=O)[C@H](CC(C)C)NC(=O)[C@H](Cc4ccc(O)cc4)NC(=O)[C@@H]4CCCN4C(=O)[C@H](CCCNC(=N)N)NC(=O)[C@H](CSSC[C@H](NC(=O)[C@@H](N)CC(=O)O)C(=O)N[C@@H](CC(C)C)C(=O)NCC(=O)N[C@@H](Cc4ccccc4)C(=O)N[C@@H](CCSC)C(=O)N[C@@H](CCCNC(=N)N)C(=O)N[C@@H](CCCCN)C(=O)N2)NC(=O)[C@H](CSSC[C@@H](C(=O)N[C@@H](CCCCN)C(=O)N[C@@H](Cc2ccc(O)cc2)C(=O)N[C@H](C(=O)N[C@@H](Cc2ccccc2)C(N)=O)C(C)C)NC(=O)[C@H](Cc2c[nH]c4ccccc24)NC(=O)[C@H](CCCCN)NC(=O)[C@H](Cc2c[nH]cn2)NC(=O)[C@H]([C@@H](C)O)NC(=O)[C@H](CCCNC(=N)N)NC(=O)[C@H](CO)NC3=O)NC(=O)[C@H](CCCCN)NC(=O)[C@H](CC(=O)O)NC(=O)[C@H](CC(N)=O)NC(=O)[C@H](CC(=O)O)NC(=O)[C@@H]2CCCN2C1=O [compound 200] (H-DCLGFMRKCIPDNDKCCRPYLVCSRTHKWCKYVF-NH2; disulfide 2-17, 9-23, 16-30) | 0.055 | 0.116 | 9.05 | – | – | – | –
3 | CC[C@H](C)[C@@H]1NC(=O)[C@@H]2CSSC[C@@H]3NC(=O)[C@H](C(C)C)NC(=O)[C@H](CC(C)C)NC(=O)[C@H](CC(N)=O)NC(=O)[C@@H]4CCCN4C(=O)[C@H](CCCNC(=N)N)NC(=O)[C@H](CSSC[C@H](NC(=O)[C@@H](N)CC(=O)O)C(=O)N[C@@H](CC(C)C)C(=O)NCC(=O)N[C@@H](Cc4ccccc4)C(=O)N[C@@H](CCSC)C(=O)N[C@@H](CCCNC(=N)N)C(=O)N[C@@H](CCCCN)C(=O)N2)NC(=O)[C@H](CSSC[C@@H](C(=O)N[C@@H](CCCCN)C(=O)N[C@@H](Cc2cn(C)c4ccccc24)C(=O)N[C@H](C(=O)N[C@@H](Cc2ccccc2)C(N)=O)C(C)C)NC(=O)[C@H](Cc2c[nH]c4ccccc24)NC(=O)[C@H](CCCCN)NC(=O)[C@H](Cc2c[nH]cn2)NC(=O)[C@H]([C@@H](C)O)NC(=O)[C@H](CCCNC(=N)N)NC(=O)[C@H](CO)NC3=O)NC(=O)[C@H](CCCCN)NC(=O)[C@H](CC(=O)O)NC(=O)[C@H](CC(N)=O)NC(=O)[C@H](CC(=O)O)NC(=O)[C@@H]2CCCN2C1=O [compound 246] (H-DCLGFMRKCIPDNDKCCRPNLVCSRTHKWCK[Trp(1-Me)]VF-NH2; disulfide 2-17, 9-23, 16-30) | – | – | – | – | – | – | IC50 (hNav1.3; Table 25, use, […]): 0.03 µM; IC50 (hNav1.7; Table 25, use, […]): 0.06 µM; IC50 (hNav1.5; Table 25, use, […]): 14.4 µM
4 | CC[C@H](C)[C@H](NC(=O)[C@H](Cc1ccc(O)cc1)NC(=O)[C@H](CCCCN)NC(=O)[C@@H]1CSSC[C@@H]2NC(=O)[C@H](CCCCN)NC(=O)[C@H](CC(=O)O)NC(=O)[C@H](CC(N)=O)NC(=O)[C@H](CC(=O)O)NC(=O)[C@@H]3CCCN3C(=O)[C@H]([C@@H](C)CC)NC(=O)[C@@H]3CSSC[C@H](NC(=O)[C@H](C(C)C)NC(=O)[C@H](CC(C)C)NC(=O)[C@H](CC(N)=O)NC(=O)[C@@H]4CCCN4C(=O)[C@H](CCCNC(=N)N)NC(=O)[C@H](CSSC[C@H](NC(=O)[C@@H](N)CC(=O)O)C(=O)N[C@@H](CC(C)C)C(=O)NCC(=O)N[C@@H](Cc4ccccc4)C(=O)N[C@@H](CCSC)C(=O)N[C@@H](CCCNC(=N)N)C(=O)N[C@@H](CCCCN)C(=O)N3)NC2=O)C(=O)N[C@@H](CO)C(=O)N[C@@H](CCCNC(=N)N)C(=O)N[C@@H]([C@@H](C)O)C(=O)N[C@@H](Cc2c[nH]cn2)C(=O)N[C@@H](CCCCN)C(=O)N[C@@H](Cc2c[nH]c3ccccc23)C(=O)N1)C(=O)N[C@@H](Cc1ccccc1)C(N)=O [compound 248] (H-DCLGFMRKCIPDNDKCCRPNLVCSRTHKWCKYIF-NH2; disulfide 2-17, 9-23, 16-30) | – | – | – | 0.09 | 0.15 | 6.89 | –
5 | CC[C@H](C)[C@@H]1NC(=O)[C@@H]2CSSC[C@@H]3NC(=O)[C@H](C(C)C)NC(=O)[C@H](CC(C)C)NC(=O)[C@H](CC(N)=O)NC(=O)[C@@H]4CCCN4C(=O)[C@H](CCCNC(=N)N)NC(=O)[C@H](CSSC[C@H](NC(=O)[C@@H](N)CC(=O)O)C(=O)N[C@@H](CC(C)C)C(=O)NCC(=O)N[C@@H](Cc4ccccc4)C(=O)N[C@@H](CCSC)C(=O)N[C@@H](CCCNC(=N)N)C(=O)N[C@@H](CCCCN)C(=O)N2)NC(=O)[C@H](CSSC[C@@H](C(=O)N[C@@H](CCCCN)C(=O)N[C@@H](Cc2ccc(O)cc2)C(=O)N[C@@H](Cc2ccc(I)cc2)C(=O)N[C@@H](Cc2ccccc2)C(N)=O)NC(=O)[C@H](Cc2c[nH]c4ccccc24)NC(=O)[C@H](CCCCN)NC(=O)[C@H](Cc2c[nH]cn2)NC(=O)[C@H]([C@@H](C)O)NC(=O)[C@H](CCCNC(=N)N)NC(=O)[C@H](CO)NC3=O)NC(=O)[C@H](CCCCN)NC(=O)[C@H](CC(=O)O)NC(=O)[C@H](CC(N)=O)NC(=O)[C@H](CC(=O)O)NC(=O)[C@@H]2CCCN2C1=O [compound 249] (H-DCLGFMRKCIPDNDKCCRPNLVCSRTHKWCKY[Phe(4-I)]F-NH2; disulfide 2-17, 9-23, 16-30) | – | – | – | 0.06 | 0.09 | 7.78 | –
6 | CC[C@H](C)[C@@H]1NC(=O)[C@@H]2CSSC[C@@H]3NC(=O)[C@H](C(C)C)NC(=O)[C@H](CC(C)C)NC(=O)[C@H](CC(N)=O)NC(=O)[C@@H]4CCCN4C(=O)[C@H](CCCNC(=N)N)NC(=O)[C@H](CSSC[C@H](NC(=O)[C@@H](N)CC(=O)O)C(=O)N[C@@H](CC(C)C)C(=O)NCC(=O)N[C@@H](Cc4ccccc4)C(=O)N[C@@H](CCSC)C(=O)N[C@@H](CCCNC(=N)N)C(=O)N[C@@H](CCCCN)C(=O)N2)NC(=O)[C@H](CSSC[C@@H](C(=O)N[C@@H](CCCCN)C(=O)N[C@@H](Cc2ccc(O)cc2)C(=O)N[C@@H](Cc2cn(C)c4ccccc24)C(=O)N[C@@H](Cc2ccccc2)C(N)=O)NC(=O)[C@H](Cc2c[nH]c4ccccc24)NC(=O)[C@H](CCCCN)NC(=O)[C@H](Cc2c[nH]cn2)NC(=O)[C@H]([C@@H](C)O)NC(=O)[C@H](CCCNC(=N)N)NC(=O)[C@H](CO)NC3=O)NC(=O)[C@H](CCCCN)NC(=O)[C@H](CC(=O)O)NC(=O)[C@H](CC(N)=O)NC(=O)[C@H](CC(=O)O)NC(=O)[C@@H]2CCCN2C1=O [compound 250] (H-DCLGFMRKCIPDNDKCCRPNLVCSRTHKWCKY[Trp(1-Me)]F-NH2; disulfide 2-17, 9-23, 16-30) | – | – | – | 0.07 | 0.09 | 5.35 | –
